Measured values published in PubChem BioAssay AID1963856 (Molecular Pharmacology Branch, DTP, NCI, 2024).

Test system: LG0567-F671-PDC KRAS tumor spheroid viability
Test: Anticancer human tumor LG0567-F671-PDC patient-derived lung adenocarcinoma cell line growth inhibition [KRAS2]
Conditions: spheroids with HUVEC and MSC; for IC50: curve of first compound; for viability, T/C: stronger effect = lower value
In short: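 Combination screen of spheroid viability in tumor-cell co-cultures with endothelial (HUVEC) and mesenchymal stem cell stroma. Each agent was tested in half-log dilutions, topping at clinical Cmax or at 10 microM without a known Cmax.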

[1] = second compound 0.1 µM, first compound 0.0316 µM
[2] = second compound 0.1 µM, first compound 0.1 µM
[3] = second compound 0.1 µM, first compound 0.316 µM
[4] = second compound 0.1 µM, first compound 1 µM
[5] = second compound 0.316 µM, first compound 0.0316 µM
[6] = second compound 0.316 µM, first compound 0.1 µM
[7] = second compound 0.316 µM, first compound 0.316 µM
[8] = second compound 0.316 µM, first compound 1 µM
[9] = second compound 1 µM, first compound 0.0316 µM
[10] = second compound 1 µM, first compound 0.1 µM
[11] = second compound 1 µM, first compound 0.316 µM
[12] = second compound 1 µM, first compound 1 µM
[13] = second compound 3.16 µM, first compound 0.0316 µM
[14] = second compound 3.16 µM, first compound 0.1 µM
[15] = second compound 3.16 µM, first compound 0.316 µM
[16] = second compound 3.16 µM, first compound 1 µM
[17] = second compound 10 µM, first compound 0.0316 µM
[18] = second compound 10 µM, first compound 0.1 µM
[19] = second compound 10 µM, first compound 0.316 µM
[20] = second compound 10 µM, first compound 1 µM
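Note: drug exposure lasted seven days after spheroids formed for three days.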
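Throughout, for viability, T/C: 100% = DMSO vehicle control viability.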

Row | Compound | IC50 (second compound 0.1 µM) [nM] | IC50 (second compound 0.316 µM) [nM] | IC50 (second compound 1 µM) [nM] | IC50 (second compound 3.16 µM) [nM] | IC50 (second compound 10 µM) [nM] | viability, T/C [1] [%] | viability, T/C [2] [%] | viability, T/C [3] [%] | viability, T/C [4] [%] | viability, T/C [5] [%] | viability, T/C [6] [%] | viability, T/C [7] [%] | viability, T/C [8] [%] | viability, T/C [9] [%] | viability, T/C [10] [%] | viability, T/C [11] [%] | viability, T/C [12] [%] | viability, T/C [13] [%] | viability, T/C [14] [%] | viability, T/C [15] [%] | other results
1 | CCNC(=O)CC1N=C(c2ccc(Cl)cc2)c2cc(OC)ccc2-n2c(C)nnc21 (stereo not given) + CNCc1ccccc1-c1csc(C(C)Nc2nc(C)nc3cc(OC)c(OC)cc23)c1 | 1010 | 602 | 362 | 127 | < 31.6 | 96.7 | 92.1 | 66.1 | 49.9 | 85.4 | 87.6 | 64.1 | 39.2 | 70.2 | 67.6 | 49 | 39 | 72.3 | 62.5 | 1.46 | viability, T/C (second compound 0.1 µM, first compound 3.16 µM): 42.1%; viability, T/C (second compound 0.1 µM, first compound 10 µM): 30%; viability, T/C (second compound 0.316 µM, first compound 3.16 µM): 32.7%; viability, T/C (second compound 0.316 µM, first compound 10 µM): 30.6%; viability, T/C (second compound 1 µM, first compound 3.16 µM): 29.7%; viability, T/C (second compound 1 µM, first compound 10 µM): 25.5%; viability, T/C [16]: 0.1%; viability, T/C (second compound 3.16 µM, first compound 3.16 µM): 2.03%; viability, T/C (second compound 3.16 µM, first compound 10 µM): 1.27%; viability, T/C [17]: 0.18%; viability, T/C [18]: 0.15%; viability, T/C [19]: 0.22%; viability, T/C [20]: 0.09%; viability, T/C (second compound 10 µM, first compound 3.16 µM): 0.09%; viability, T/C (second compound 10 µM, first compound 10 µM): 0.15%
2 | CCN1CCN(Cc2ccc(Nc3ncc(F)c(-c4cc(F)c5nc(C)n(C(C)C)c5c4)n3)nc2)CC1 + COc1cc2nc(C)nc(NC(C)c3cc(N)cc(C(F)(F)F)c3)c2cc1OC1CCOC1 | 913 | 47.3 | 7.74 | < 3.16 | 5.32 | 54.3 | 56.7 | 54.8 | 47.3 | 51.5 | 47.5 | 44.2 | 45.3 | 45.7 | 38.7 | 32.2 | 42.4 | 34.7 | 33.6 | 29.4 | viability, T/C (second compound 0.1 µM, first compound 0.00316 µM): 70.5%; viability, T/C (second compound 0.1 µM, first compound 0.01 µM): 64.7%; viability, T/C (second compound 0.316 µM, first compound 0.00316 µM): 69%; viability, T/C (second compound 0.316 µM, first compound 0.01 µM): 64.2%; viability, T/C (second compound 1 µM, first compound 0.00316 µM): 57.3%; viability, T/C (second compound 1 µM, first compound 0.01 µM): 47.3%; viability, T/C (second compound 3.16 µM, first compound 0.00316 µM): 44.4%; viability, T/C (second compound 3.16 µM, first compound 0.01 µM): 39.5%; viability, T/C [16]: 30.8%; viability, T/C (second compound 10 µM, first compound 0.00316 µM): 60.8%; viability, T/C (second compound 10 µM, first compound 0.01 µM): 34.8%; viability, T/C [17]: 26.5%; viability, T/C [18]: 9.45%; viability, T/C [19]: 0.94%; viability, T/C [20]: 0.43%
